Data published in ChEMBL document CHEMBL4627326, “Discovery of 4-hydroxy-2-oxo-1,2-dihydroquinolines as potential inhibitors of Streptococcus pneumoniae, including drug-resistant strains” (Bioorg Med Chem Lett, 2020).
≈ marks a conversion by molar mass, not a printed value.

Legend:
Streptococcus pneumoniae [1] = test: Antibacterial activity against Streptococcus pneumoniae ATCC BAA1663; format: functional, organism-based
Streptococcus pneumoniae [2] = test: Antibacterial activity against Streptococcus pneumoniae ATCC 700904; format: functional, organism-based
Streptococcus pneumoniae [3] = test: Antibacterial activity against Streptococcus pneumoniae ATCC 49617; format: functional, organism-based
[4] = Half life in rat at 2 mg/kg, iv; format: ADME, organism-based; settings: in vivo
[5] = Cmax in rat at 10 mg/kg, po; format: ADME, organism-based; design: dose 10 mg/kg, route oral; settings: in vivo
[6] = Half life in rat at 10 mg/kg, po; format: ADME, organism-based; settings: in vivo
[7] = AUC in rat at 2 mg/kg, iv; format: ADME, organism-based; settings: in vivo
[8] = Volume of distribution at steady state in rat at 2 mg/kg, iv; format: ADME, organism-based; settings: in vivo, read-out: Vdss
[9] = Oral bioavailability in rat at 10 mg/kg; format: ADME, organism-based; settings: in vivo
[10] = AUC in rat at 10 mg/kg, po; format: ADME, organism-based; settings: in vivo
[11] = Clearance in rat at 2 mg/kg, iv; format: ADME, organism-based; settings: in vivo
[12] = Tmax in rat at 10 mg/kg, po; format: ADME, organism-based; settings: in vivo
[13] = Protein binding in rat plasma; format: ADME, cell-free; settings: read-out: PPB (converted)
[14] = Solubility of compound at 1 mg/ml incubated for 24 hrs by LC/MS analysis; format: physicochemical
[15] = Protein binding in human plasma; format: ADME, cell-free; settings: read-out: PPB (converted)
[16] = Streptococcus pneumoniae, ATCC 700904, read-out: IC50

SMILES	IC50 (Streptococcus pneumoniae [1]) [µM]	IC50 (Streptococcus pneumoniae [2]; [16]) [µM]	IC50 (Streptococcus pneumoniae [3]) [µM]	also measured
O=C(Nc1nccs1)c1c(O)c2cccc3c2n(c1=O)CCC3	> 20	> 20	> 20	
CCn1c(=O)c(C(=O)Nc2nc3ccc(Cl)cc3s2)c(O)c2ccccc21	> 20	> 20	5.9	
CCCCn1c(=O)c(C(=O)Nc2nc3ccc(Cl)cc3s2)c(O)c2ccccc21	0.66	0.38	1	
O=C(Nc1nc2ccc(Cl)cc2s1)c1c(O)c2cccc3c2n(c1=O)CCC3	> 20	> 20	> 20	
CCn1c(=O)c(C(=O)Nc2nc3ccccc3[nH]2)c(O)c2ccccc21	5.4	3.8	6.4	
Cc1nnc(NC(=O)c2c(O)c3cccc4c3n(c2=O)CC4)s1	2.7	1.7	2.2	
Cn1c(=O)c(C(=O)Nc2nccs2)c(O)c2ccccc21	> 20	> 20	> 20	
O=C(Nc1nc2ccc(Cl)cc2s1)c1c(O)c2ccccc2[nH]c1=O	> 20	> 20	13.1	
O=C(Nc1nccs1)c1c(O)c2cccc3c2n(c1=O)CC3	16	> 20	17.6	
C=CCn1c(=O)c(C(=O)Nc2nccs2)c(O)c2ccccc21	4.5	4.2	4.1	
CCn1c(=O)c(C(=O)Nc2nccs2)c(O)c2ccccc21	6.6	6.2	> 20	
CCCCn1c(=O)c(C(=O)Nc2nc3ccccc3[nH]2)c(O)c2ccccc21	1.8	0.8	0.92	half-life [4]: 18.8 h; Cmax [5]: 1200 ng/mL; half-life [6]: 4 h; AUC [7]: 6990 ng·h/mL; Vd [8]: 4.76 L/kg; bioavailability [9]: 35%; AUC [10]: 12400 ng·h/mL; clearance [11]: 3 mL/min/kg; Tmax [12]: 6 h
O=C(Nc1nc2ccccc2[nH]1)c1c(O)c2cccc3c2n(c1=O)CC3	2.1	3.3	2	half-life [4]: 7.7 h; Cmax [5]: 2700 ng/mL; half-life [6]: 7.2 h; AUC [7]: 25700 ng·h/mL; Vd [8]: 0.84 L/kg; bioavailability [9]: 17%; AUC [10]: 21400 ng·h/mL; clearance [11]: 1.17 mL/min/kg; Tmax [12]: 2.7 h
O=C(Nc1nc2ccccc2[nH]1)c1c(O)c2cccc3c2n(c1=O)CCC3	5.2	6.4	6.5	
C=CCn1c(=O)c(C(=O)Nc2nc3ccccc3[nH]2)c(O)c2ccccc21	> 20	> 20	4.9	
O=C(Nc1nc2ccc(Cl)cc2s1)c1c(O)c2cccc3c2n(c1=O)CC3	1.03	0.62	0.27	fraction unbound [13]: 0.016; solubility at 24 h [14]: 0.195 µg/mL (≈ 0.49 µM); fraction unbound [15]: 0.006
Cn1c(=O)c(C(=O)Nc2nc3ccccc3[nH]2)c(O)c2ccccc21	> 20	> 20	> 20	
CCCCn1c(=O)c(C(=O)Nc2nccs2)c(O)c2ccccc21	0.75	0.77	0.57	
C=CCn1c(=O)c(C(=O)Nc2nc3ccc(Cl)cc3s2)c(O)c2ccccc21	3.1	3.1	> 20	
CC[C@H]1OC(=O)[C@H](C)[C@@H](O[C@H]2C[C@@](C)(OC)[C@@H](O)[C@H](C)O2)[C@H](C)[C@@H](O[C@@H]2O[C@H](C)C[C@H](N(C)C)[C@H]2O)[C@](C)(O)C[C@@H](C)C(=O)[C@H](C)[C@@H](O)[C@]1(C)O [ERYTHROMYCIN]	0.037 to 0.08		0.051 to 0.1	IC50 (Streptococcus pneumoniae [2]): Not Active
O=C(Nc1nc2ccccc2s1)c1c(O)c2cccc3c2n(c1=O)CC3	8.8	7.9	3.6	
CN[C@H](CC(C)C)C(=O)N[C@H]1C(=O)N[C@@H](CC(N)=O)C(=O)N[C@H]2C(=O)N[C@H]3C(=O)N[C@H](C(=O)N[C@H](C(=O)O)c4cc(O)cc(O)c4-c4cc3ccc4O)[C@H](O)c3ccc(c(Cl)c3)Oc3cc2cc(c3O[C@@H]2O[C@H](CO)[C@@H](O)[C@H](O)[C@H]2O[C@H]2C[C@](C)(N)[C@H](O)[C@H](C)O2)Oc2ccc(cc2Cl)[C@H]1O [VANCOMYCIN]	0.13 to 0.19	0.12 to 0.19	0.15 to 0.18	
